Experimental data taken from patent US20250325536A1, “THERAPEUTIC USES OF GLP1R AGONISTS” (vTv Therapeutics LLC, priority 2018, published 2025).

Tests used:
[1] = system: subjects (humans) with type 2 diabetes; test: Phase 2 clinical study of API-1, 12 weeks of treatment, on stable metformin; type: in vivo, human; conditions: for placebo-subtracted decrease from baseline in HbA1c (%): p<0.001
Method: A Phase 2 clinical study was designed as a randomized, double-blind, placebo- controlled, parallel-group multi-center study evaluating the efficacy and safety following 12 weeks of treatment with API-1 in subjects (humans) with type 2 diabetes who were being treated with a stable dose of metformin. Subjects were randomly assigned to one of three treatment groups, API-1 150 mg BID, API-1 150 mg QPM, or placebo with approximately n=52/group. A total of approximately 156 patients were to be randomized into this study and 174 were ultimately randomized. Subjects were enrolled and randomized according to a fixed randomization scheme blocked by study investigative site. Severity of diabetes was determined by HbA1c measures (7.5% to 10%) at screening, confirmed at Baseline, and HbA1c was used as a stratification variable in the randomization scheme: HbA1c less than 8% and 8% or more. Randomization was to be a balanced allocation (1:1:1) among the three treatment groups. Dropouts were not to be replaced. Statistical analyses for topline results included placebo-subtracted change from baseline (LSM-CFB) for HbA1c (primary endpoint) and body weight (secondary endpoint) as well as a post hoc concentration/effect analysis to evaluate the effect of exposure on efficacy.

[2] = system: subjects (humans) with T2DM; test: Phase 2 dose-ranging study of API-2, 12 weeks of treatment; type: in vivo, human; conditions: Target population (Baseline 8-11%)
Method: A Phase 2 study was designed as a randomized, double-blind, placebo controlled, dose-ranging, parallel group study evaluating the efficacy and safety following 12 weeks of treatment with API-2 in subjects (humans) with T2DM. The study was conducted in 2 parts: Part A and Part B. Part A and Part B were identical except for the dose levels administered. In Part A, subjects received one of two treatments administered orally for 12 weeks: API-2 400 mg QD (n=51) or matching placebo (n=26). In Part B, subjects received one of three treatments administered orally for 12 weeks: API-2 200 mg QD (n=28), API-2 800 mg QD (n=56), or matching placebo (n=26).

[3] = 150 mg once daily (QPM) arm, Week 12, completers, 2.2 mg/kg to 1.0 mg/kg
[4] = 150 mg twice daily (BID) arm, Week 12, completers, 2.2 mg/kg to 4.8 mg/kg

## CC[C@@H](c1ccccc1)N1Cc2cc3c(cc2C[C@H]1C(=O)N[C@@H](Cc1ccc(-c2ccnc(C)c2C)cc1)C(=O)O)OC[C@H](c1ccc(OCc2ccc(Cl)c(Cl)c2)cc1)O3.Cl.Cl [API-1, (S)-2-{[(3S,8S)-3-[4-(3,4-dichloro-benzyloxy)-phenyl]-7-((S)-1-phenyl-propyl)-2,3,6,7,8,9-hexahydro-[1,4]dioxino[2,3-g]isoquinoline-8-carbonyl]-amino}-3-[4-(2,3-dimethyl-pyridin-4-yl)-phenyl]-propionic acid hydrochloride (1:2)]
[1]; 150 mg once daily (QPM) arm, 12 weeks
  placebo-subtracted decrease from baseline in HbA1c (%): 0.9±0.2%
[1]; [3]
  dose (mg/kg) response of change from baseline in FPG (FIG. 3): increased as the dose was reduced
  dose (mg/kg) response of change from baseline in HbA1c (FIG. 1): increased as the dose was reduced
[1]; 150 mg once daily arm, 12 weeks, p=0.08
  weight loss (average): 0.9 kg
[1]; 150 mg twice daily (BID) arm, 12 weeks
  placebo-subtracted decrease from baseline in HbA1c (%): 0.7±0.2%
[1]; [4]
  dose (mg/kg) response of change from baseline in FPG (FIG. 4): almost unchanged
  dose (mg/kg) response of change from baseline in HbA1c (FIG. 2): almost unchanged
[1]; 150 mg twice daily arm, 12 weeks
  weight loss (average): 0.6 kg
[1]; group 1-1.35 mg/kg (<1.35), Week 4
  Mean Change from Baseline HbA1c (%): −0.57%
[1]; group 1-1.35 mg/kg (<1.35), Week 8
  Mean Change from Baseline HbA1c (%): −1.26%
[1]; group 1-1.35 mg/kg (<1.35), Week 12
  Mean Change from Baseline HbA1c (%): −1.71%
[1]; group 1.35-1.64 mg/kg, Week 4
  Mean Change from Baseline HbA1c (%): −0.35%
[1]; group 1.35-1.64 mg/kg, Week 8
  Mean Change from Baseline HbA1c (%): −0.85%
[1]; group 1.35-1.64 mg/kg, Week 12
  Mean Change from Baseline HbA1c (%): −0.90%
[1]; group 1.65-1.75 mg/kg, Week 4
  Mean Change from Baseline HbA1c (%): −0.21%
[1]; group 1.65-1.75 mg/kg, Week 8
  Mean Change from Baseline HbA1c (%): −0.51%
[1]; group 1.65-1.75 mg/kg, Week 12
  Mean Change from Baseline HbA1c (%): −0.75%
[1]; group 1.76-2.2 mg/kg (>1.75), Week 4
  Mean Change from Baseline HbA1c (%): −0.31%
[1]; group 1.76-2.2 mg/kg (>1.75), Week 8
  Mean Change from Baseline HbA1c (%): −0.43%
[1]; group 1.76-2.2 mg/kg (>1.75), Week 12
  Mean Change from Baseline HbA1c (%): −0.55%
[1]; once daily arm, 12 weeks
  placebo-subtracted decrease from baseline in fasting plasma glucose: about 16 mg/dL
[1]; patients dosed with lower than 1.35 mg/kg, 12 weeks, p<0.01
  reduction from baseline in HbA1c: 1.7%
[1]; patients dosed with lower than 1.35 mg/kg, 12 weeks, p<0.05
  reduction from baseline in body weight: 3.7 kg
[1]; twice daily arm, 12 weeks
  placebo-subtracted decrease from baseline in fasting plasma glucose: ~17 mg/dL

## CC[C@@H](c1ccccc1)N1Cc2cc3c(cc2C[C@H]1C(=O)N[C@@H](Cc1ccc(-c2ccc(C#N)cc2)cc1)C(=O)O)N(C)C(=O)[C@@H](c1ccc(OCc2ccc(Cl)c(Cl)c2)cc1)O3 [API-2, (S)-3-(4′-cyano-biphenyl-4-yl)-2-{[(3R,7S)-3-[4-(3,4-dichlorobenzyloxy)-phenyl]-1-methyl-2-oxo-6-((S)-1-phenyl-propyl)-2,3,5,6,7,8-hexahydro-1H-4-oxa-1,6-diaza-anthracene-7-carbonyl]-amino}-propionic acid]
[2]; group 1.4-2.7 mg/kg (<2.7), Week 4
  Mean Change from Baseline in HbA1c (%): −0.37%
[2]; group 1.4-2.7 mg/kg (<2.7), Week 8
  Mean Change from Baseline in HbA1c (%): −0.69%
[2]; group 1.4-2.7 mg/kg (<2.7), Week 12
  Mean Change from Baseline in HbA1c (%): −0.79%
[2]; group 2.8-4.0 mg/kg, Week 4
  Mean Change from Baseline in HbA1c (%): −0.47%
[2]; group 2.8-4.0 mg/kg, Week 8
  Mean Change from Baseline in HbA1c (%): −0.86%
[2]; group 2.8-4.0 mg/kg, Week 12
  Mean Change from Baseline in HbA1c (%): −1.09%
[2]; group 4.1-5.0 mg/kg, Week 4
  Mean Change from Baseline in HbA1c (%): −0.36%
[2]; group 4.1-5.0 mg/kg, Week 8
  Mean Change from Baseline in HbA1c (%): −0.78%
[2]; group 4.1-5.0 mg/kg, Week 12
  Mean Change from Baseline in HbA1c (%): −0.85%
[2]; group 5.1-12.4 mg/kg (>5.0), Week 4
  Mean Change from Baseline in HbA1c (%): −0.26%
[2]; group 5.1-12.4 mg/kg (>5.0), Week 8
  Mean Change from Baseline in HbA1c (%): −0.34%
[2]; group 5.1-12.4 mg/kg (>5.0), Week 12
  Mean Change from Baseline in HbA1c (%): −0.34%
